Assay results as given in PubChem BioAssay AID2060898 (Molecular Pharmacology Branch, DTP, NCI, 2025).

System: 616215-338-R-J1-PDC complex spheroid viability
Assay: Anticancer human tumor 616215-338-R-J1-PDC patient-derived colon adenocarcinoma cell line growth inhibition [RAS]
Conditions: for IC50: curve of first compound; for viability, T/C: stronger effect = lower value
Method in brief: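 Agents were tested in combination matrices in half-log decrements from a top concentration at or near clinical Cmax (10 microM if undetermined). Targets were multi-cell spheroids of tumour lines plus HUVEC and MSC stromal cells.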

[1] = second compound 0.00316 µM, first compound 0.000949 µM
[2] = second compound 0.00316 µM, first compound 0.003 µM
[3] = second compound 0.00316 µM, first compound 0.00949 µM
[4] = second compound 0.00316 µM, first compound 0.03 µM
[5] = second compound 0.00316 µM, first compound 0.0949 µM
[6] = second compound 0.00316 µM, first compound 0.3 µM
[7] = second compound 0.01 µM, first compound 0.000949 µM
[8] = second compound 0.01 µM, first compound 0.003 µM
[9] = second compound 0.01 µM, first compound 0.00949 µM
[10] = second compound 0.01 µM, first compound 0.03 µM
[11] = second compound 0.01 µM, first compound 0.0949 µM
[12] = second compound 0.01 µM, first compound 0.3 µM
[13] = second compound 0.0316 µM, first compound 0.000949 µM
[14] = second compound 0.0316 µM, first compound 0.003 µM
[15] = second compound 0.0316 µM, first compound 0.00949 µM
[16] = second compound 0.0316 µM, first compound 0.03 µM
[17] = second compound 0.0316 µM, first compound 0.0949 µM
[18] = second compound 0.0316 µM, first compound 0.3 µM
[19] = second compound 0.1 µM, first compound 0.000949 µM
[20] = second compound 0.1 µM, first compound 0.003 µM
[21] = second compound 0.1 µM, first compound 0.00949 µM
[22] = second compound 0.1 µM, first compound 0.03 µM
[23] = second compound 0.1 µM, first compound 0.0949 µM
[24] = second compound 0.1 µM, first compound 0.3 µM
[25] = second compound 0.316 µM, first compound 0.000949 µM
[26] = second compound 0.316 µM, first compound 0.003 µM
[27] = second compound 0.316 µM, first compound 0.00949 µM
[28] = second compound 0.316 µM, first compound 0.03 µM
[29] = second compound 0.316 µM, first compound 0.0949 µM
[30] = second compound 0.316 µM, first compound 0.3 µM
[31] = second compound 1 µM, first compound 0.000949 µM
[32] = second compound 1 µM, first compound 0.003 µM
[33] = second compound 1 µM, first compound 0.00949 µM
[34] = second compound 1 µM, first compound 0.03 µM
[35] = second compound 1 µM, first compound 0.0949 µM
[36] = second compound 1 µM, first compound 0.3 µM
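Also: spheroids exposed to agents for seven days before viability readout.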
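For viability, T/C in this document: 100% = DMSO vehicle control viability.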

## CC1(C)CCC(Nc2ncc(C(F)(F)F)c(-c3c[nH]c4c(P(C)(C)=O)c(C#N)ccc34)n2)CN1 (stereo unspecified) + C=CC(=O)N1CCN(c2nc(OCC3CCCN3C)nc3c(F)c(-c4nc(N)cc(C)c4C(F)(F)F)c(Cl)cc23)C(C)C1
Second compound 0.00316 µM
  IC50: 12.8 nM
Second compound 0.01 µM
  IC50: 11.8 nM
Second compound 0.0316 µM
  IC50: 15.1 nM
Second compound 0.1 µM
  IC50: 16.1 nM
Second compound 0.316 µM
  IC50: 16.1 nM
Second compound 1 µM
  IC50: 8.99 nM
[1]
  viability, T/C: 103%
[2]
  viability, T/C: 102%
[3]
  viability, T/C: 56.7%
[4]
  viability, T/C: 33.5%
[5]
  viability, T/C: 25.2%
[6]
  viability, T/C: 28.3%
[7]
  viability, T/C: 109%
[8]
  viability, T/C: 97.8%
[9]
  viability, T/C: 54%
[10]
  viability, T/C: 32%
[11]
  viability, T/C: 30.2%
[12]
  viability, T/C: 25.7%
[13]
  viability, T/C: 103%
[14]
  viability, T/C: 108%
[15]
  viability, T/C: 62.3%
[16]
  viability, T/C: 35.4%
[17]
  viability, T/C: 29.2%
[18]
  viability, T/C: 31%
[19]
  viability, T/C: 106%
[20]
  viability, T/C: 101%
[21]
  viability, T/C: 64%
[22]
  viability, T/C: 33.8%
[23]
  viability, T/C: 27.8%
[24]
  viability, T/C: 27.6%
[25]
  viability, T/C: 102%
[26]
  viability, T/C: 97.3%
[27]
  viability, T/C: 61.9%
[28]
  viability, T/C: 36.6%
[29]
  viability, T/C: 29.1%
[30]
  viability, T/C: 28.7%
[31]
  viability, T/C: 99.7%
[32]
  viability, T/C: 94.1%
[33]
  viability, T/C: 47.7%
[34]
  viability, T/C: 33.8%
[35]
  viability, T/C: 34.7%
[36]
  viability, T/C: 28.4%

## CCc1c2c(nc3ccc(O)cc13)-c1cc3c(c(=O)n1C2)COC(=O)[C@]3(O)CC + C=CC(=O)N1CCN(c2nc(OCC3CCCN3C)nc3c(F)c(-c4nc(N)cc(C)c4C(F)(F)F)c(Cl)cc23)C(C)C1
Second compound 0.00316 µM
  IC50: 8.93 nM
Second compound 0.01 µM
  IC50: 8.71 nM
Second compound 0.0316 µM
  IC50: 13.8 nM
Second compound 0.1 µM
  IC50: 9.38 nM
Second compound 0.316 µM
  IC50: 14.1 nM
Second compound 1 µM
  IC50: 8.32 nM
[1]
  viability, T/C: 98%
[2]
  viability, T/C: 103%
[3]
  viability, T/C: 47.2%
[4]
  viability, T/C: 27%
[5]
  viability, T/C: 20.6%
[6]
  viability, T/C: 16.9%
[7]
  viability, T/C: 99.3%
[8]
  viability, T/C: 106%
[9]
  viability, T/C: 45.8%
[10]
  viability, T/C: 30.2%
[11]
  viability, T/C: 23.6%
[12]
  viability, T/C: 17.6%
[13]
  viability, T/C: 107%
[14]
  viability, T/C: 115%
[15]
  viability, T/C: 59.9%
[16]
  viability, T/C: 32.5%
[17]
  viability, T/C: 18.4%
[18]
  viability, T/C: 14.9%
[19]
  viability, T/C: 112%
[20]
  viability, T/C: 109%
[21]
  viability, T/C: 48.5%
[22]
  viability, T/C: 29.4%
[23]
  viability, T/C: 20.1%
[24]
  viability, T/C: 16.5%
[25]
  viability, T/C: 110%
[26]
  viability, T/C: 98.1%
[27]
  viability, T/C: 57.7%
[28]
  viability, T/C: 32.4%
[29]
  viability, T/C: 16.3%
[30]
  viability, T/C: 12.8%
[31]
  viability, T/C: 106%
[32]
  viability, T/C: 110%
[33]
  viability, T/C: 42.5%
[34]
  viability, T/C: 28.2%
[35]
  viability, T/C: 22.9%
[36]
  viability, T/C: 15.4%

## C=CC(=O)Nc1cc(Nc2nccc(-c3cn(C)c4ccccc34)n2)c(OC)cc1N(C)CCN(C)C + CCn1c(-c2cc(N3CCN(C)CC3)cnc2C(C)OC)c2c3cc(ccc31)-c1csc(n1)CC(NC(=O)C1CC1C)C(=O)N1CCCC(N1)C(=O)OCC(C)(C)C2
Second compound 0.000949 µM
  IC50: > 1000 nM
Second compound 0.003 µM
  IC50: 522 nM
Second compound 0.00949 µM
  IC50: 216 nM
Second compound 0.03 µM
  IC50: 3.16 nM
Second compound 0.0949 µM
  IC50: < 3.16 nM
Second compound 0.3 µM
  IC50: < 3.16 nM
Second compound 0.000949 µM, first compound 0.00316 µM
  viability, T/C: 106%
Second compound 0.000949 µM, first compound 0.01 µM
  viability, T/C: 102%
Second compound 0.000949 µM, first compound 0.0316 µM
  viability, T/C: 119%
Second compound 0.000949 µM, first compound 0.1 µM
  viability, T/C: 101%
Second compound 0.000949 µM, first compound 0.316 µM
  viability, T/C: 84.1%
Second compound 0.000949 µM, first compound 1 µM
  viability, T/C: 56.3%
Second compound 0.003 µM, first compound 0.00316 µM
  viability, T/C: 113%
Second compound 0.003 µM, first compound 0.01 µM
  viability, T/C: 109%
Second compound 0.003 µM, first compound 0.0316 µM
  viability, T/C: 104%
Second compound 0.003 µM, first compound 0.1 µM
  viability, T/C: 81.9%
Second compound 0.003 µM, first compound 0.316 µM
  viability, T/C: 54.7%
Second compound 0.003 µM, first compound 1 µM
  viability, T/C: 43.7%
Second compound 0.00949 µM, first compound 0.00316 µM
  viability, T/C: 77.3%
Second compound 0.00949 µM, first compound 0.01 µM
  viability, T/C: 80.4%
Second compound 0.00949 µM, first compound 0.0316 µM
  viability, T/C: 72%
Second compound 0.00949 µM, first compound 0.1 µM
  viability, T/C: 63%
Second compound 0.00949 µM, first compound 0.316 µM
  viability, T/C: 43.6%
Second compound 0.00949 µM, first compound 1 µM
  viability, T/C: 28.7%
Second compound 0.03 µM, first compound 0.00316 µM
  viability, T/C: 44.4%
Second compound 0.03 µM, first compound 0.01 µM
  viability, T/C: 48.8%
Second compound 0.03 µM, first compound 0.0316 µM
  viability, T/C: 48.4%
Second compound 0.03 µM, first compound 0.1 µM
  viability, T/C: 54.9%
Second compound 0.03 µM, first compound 0.316 µM
  viability, T/C: 34.5%
Second compound 0.03 µM, first compound 1 µM
  viability, T/C: 32.4%
Second compound 0.0949 µM, first compound 0.00316 µM
  viability, T/C: 30.8%
Second compound 0.0949 µM, first compound 0.01 µM
  viability, T/C: 34.1%
Second compound 0.0949 µM, first compound 0.0316 µM
  viability, T/C: 36.6%
Second compound 0.0949 µM, first compound 0.1 µM
  viability, T/C: 36.9%
Second compound 0.0949 µM, first compound 0.316 µM
  viability, T/C: 34.7%
Second compound 0.0949 µM, first compound 1 µM
  viability, T/C: 33%
Second compound 0.3 µM, first compound 0.00316 µM
  viability, T/C: 39.2%
Second compound 0.3 µM, first compound 0.01 µM
  viability, T/C: 33.1%
Second compound 0.3 µM, first compound 0.0316 µM
  viability, T/C: 39.1%
Second compound 0.3 µM, first compound 0.1 µM
  viability, T/C: 37.3%
Second compound 0.3 µM, first compound 0.316 µM
  viability, T/C: 33.5%
Second compound 0.3 µM, first compound 1 µM
  viability, T/C: 32.5%
